Measured values from the NIST ThermoML archive (doi:10.1021/je5010643).

Test: xn = mol fraction of the nth substance listed
Conditions: 101.32 kPa, Liquid; for speed of sound: Frequency=3 MHz, Linear variable-path acoustic interferometer

CC(C)C(=O)O [2-methylpropanoic acid] + C1COCCO1
Conditions	mass density [kg/m3]	speed of sound [m/s]
295.15 K, x2 = 0	945.28	1100.2
295.15 K, x2 = 0.1	955.63	1119.6
295.15 K, x2 = 0.2	965.46	1140
295.15 K, x2 = 0.3	975.08	1161.7
295.15 K, x2 = 0.4	984.2	1184.5
295.15 K, x2 = 0.5	993.05	1208.8
295.15 K, x2 = 0.6	1001.52	1234.7
295.15 K, x2 = 0.7	1009.56	1262.3
295.15 K, x2 = 0.8	1017.23	1291.8
295.15 K, x2 = 0.9	1024.38	1323.6
298.15 K, x2 = 0	942.22	1086
298.15 K, x2 = 0.1	952.65	1105.4
298.15 K, x2 = 0.2	962.63	1125.9
298.15 K, x2 = 0.3	972.12	1147.5
298.15 K, x2 = 0.4	981.18	1170.5
298.15 K, x2 = 0.5	989.97	1194.9
298.15 K, x2 = 0.6	998.46	1220.8
298.15 K, x2 = 0.7	1006.5	1248.6
298.15 K, x2 = 0.8	1014.12	1278.3
298.15 K, x2 = 0.9	1021.3	1310.3
301.15 K, x2 = 0	939.16	1072.1
301.15 K, x2 = 0.1	949.87	1091.5
301.15 K, x2 = 0.2	959.66	1111.9
301.15 K, x2 = 0.3	969.21	1133.6
301.15 K, x2 = 0.4	978.18	1156.6
301.15 K, x2 = 0.5	986.93	1181.1
301.15 K, x2 = 0.6	995.31	1207.2
301.15 K, x2 = 0.7	1003.43	1235
301.15 K, x2 = 0.8	1011.08	1264.9
301.15 K, x2 = 0.9	1018.24	1297.1
304.15 K, x2 = 0	936.1	1058.2
304.15 K, x2 = 0.1	946.87	1077.6
304.15 K, x2 = 0.2	956.7	1098
304.15 K, x2 = 0.3	966.21	1119.7
304.15 K, x2 = 0.4	975.19	1142.8
304.15 K, x2 = 0.5	983.97	1167.3
304.15 K, x2 = 0.6	992.36	1193.4
304.15 K, x2 = 0.7	1000.47	1221.5
304.15 K, x2 = 0.8	1008.1	1251.5
304.15 K, x2 = 0.9	1015.19	1283.9
307.15 K, x2 = 0	933.04	1043.4
307.15 K, x2 = 0.1	943.94	1062.8
307.15 K, x2 = 0.2	953.7	1083.4
307.15 K, x2 = 0.3	963.19	1105.1
307.15 K, x2 = 0.4	972.14	1128.3
307.15 K, x2 = 0.5	981.02	1152.9
307.15 K, x2 = 0.6	989.41	1179.3
307.15 K, x2 = 0.7	997.53	1207.5
307.15 K, x2 = 0.8	1005.12	1237.9
307.15 K, x2 = 0.9	1011.87	1270.7
310.15 K, x2 = 0	929.98	1030.8
310.15 K, x2 = 0.1	941.03	1050.1
310.15 K, x2 = 0.2	950.89	1070.6
310.15 K, x2 = 0.3	960.24	1092.3
310.15 K, x2 = 0.4	969.24	1115.4
310.15 K, x2 = 0.5	978.07	1139.9
310.15 K, x2 = 0.6	986.45	1166.3
310.15 K, x2 = 0.7	994.54	1194.5
310.15 K, x2 = 0.8	1002.1	1224.9
310.15 K, x2 = 0.9	1008.86	1257.7
313.15 K, x2 = 0	926.92	1015.2
313.15 K, x2 = 0.1	938.11	1034.6
313.15 K, x2 = 0.2	947.93	1055.1
313.15 K, x2 = 0.3	957.22	1076.9
313.15 K, x2 = 0.4	966.21	1100.2
313.15 K, x2 = 0.5	975.03	1125
313.15 K, x2 = 0.6	983.45	1151.6
313.15 K, x2 = 0.7	991.62	1180.1
313.15 K, x2 = 0.8	999.14	1210.9
313.15 K, x2 = 0.9	1005.92	1244.2
